Results from PMC9823097, “Dysregulation of PRMT5 in chronic lymphocytic leukemia promotes progression with high risk of Richter’s transformation” (Nature Communications, 2023).

Experiments:
HG3 cells = experiment: Cell growth curves over 12 days, HG3; format: cell-based; conditions: for anti-proliferative potency compared to PRT382: HG3
Protocol: (§1) Live cells/mL were counted on days 3, 6, 10, and 12. […] The split factor was calculated at indicated time points by dividing the counted cells/mL by 3E5. Cell growth was extrapolated over time by multiplying the subsequent cell count by the previous split factor. Cell growth is plotted as fold change relative to DMSO-treated cells.

Mec-1 cells = experiment: Cell growth curves over 12 days, Mec-1; format: cell-based; conditions: for anti-proliferative potency compared to PRT382: Mec-1
Protocol: as §1

With `Nc1ncnc2c1ccn2[C@@H]1O[C@H]([C@H](O)c2ccccc2)[C@@H](O)[C@H]1O` [LLY-283] the “Rep 1 Live Cells [Fold Change]” value (HG3 cells; HG3, 1 nM, day 0) was 1 Fold Change, the “Rep 2 Live Cells [Fold Change]” value (HG3 cells; HG3, 1 nM, day 0) was 1 Fold Change and the “Rep 1 Live Cells [Fold Change]” value (HG3 cells; HG3, 1 nM, day 3) was 6.4 Fold Change. For the same compound, the “Rep 2 Live Cells [Fold Change]” value (HG3 cells; HG3, 1 nM, day 3) was 6.4 Fold Change, the “Rep 1 Live Cells [Fold Change]” value (HG3 cells; HG3, 1 nM, day 6) was 45.44 Fold Change and the “Rep 2 Live Cells [Fold Change]” value (HG3 cells; HG3, 1 nM, day 6) was 39.4667 Fold Change. The “Rep 1 Live Cells [Fold Change]” value (HG3 cells; HG3, 1 nM, day 10) was 270.368 Fold Change, the “Rep 2 Live Cells [Fold Change]” value (HG3 cells; HG3, 1 nM, day 10) was 299.947 Fold Change and the “Rep 1 Live Cells [Fold Change]” value (HG3 cells; HG3, 1 nM, day 12) was 973.325 Fold Change. For the same compound, the “Rep 2 Live Cells [Fold Change]” value (HG3 cells; HG3, 1 nM, day 12) was 1379.76 Fold Change, the “Rep 1 Live Cells [Fold Change]” value (HG3 cells; HG3, 10 nM, day 0) was 1 Fold Change and the “Rep 2 Live Cells [Fold Change]” value (HG3 cells; HG3, 10 nM, day 0) was 1 Fold Change. For the same compound, the “Rep 1 Live Cells [Fold Change]” value (HG3 cells; HG3, 10 nM, day 3) was 6.167 Fold Change, the “Rep 2 Live Cells [Fold Change]” value (HG3 cells; HG3, 10 nM, day 3) was 6.2 Fold Change and the “Rep 1 Live Cells [Fold Change]” value (HG3 cells; HG3, 10 nM, day 6) was 34.3278 Fold Change. The “Rep 2 Live Cells [Fold Change]” value (HG3 cells; HG3, 10 nM, day 6) was 39.4733 Fold Change, the “Rep 1 Live Cells [Fold Change]” value (HG3 cells; HG3, 10 nM, day 10) was 260.891 Fold Change and the “Rep 2 Live Cells [Fold Change]” value (HG3 cells; HG3, 10 nM, day 10) was 335.523 Fold Change. For the same compound, the “Rep 1 Live Cells [Fold Change]” value (HG3 cells; HG3, 10 nM, day 12) was 755.715 Fold Change, the “Rep 2 Live Cells [Fold Change]” value (HG3 cells; HG3, 10 nM, day 12) was 1174.33 Fold Change and the “Rep 1 Live Cells [Fold Change]” value (HG3 cells; HG3, 100 nM, day 0) was 1 Fold Change. The “Rep 2 Live Cells [Fold Change]” value (HG3 cells; HG3, 100 nM, day 0) was 1 Fold Change, the “Rep 1 Live Cells [Fold Change]” value (HG3 cells; HG3, 100 nM, day 3) was 5.133 Fold Change and the “Rep 2 Live Cells [Fold Change]” value (HG3 cells; HG3, 100 nM, day 3) was 5.6 Fold Change. For the same compound, the “Rep 1 Live Cells [Fold Change]” value (HG3 cells; HG3, 100 nM, day 6) was 5.048 Fold Change, the “Rep 2 Live Cells [Fold Change]” value (HG3 cells; HG3, 100 nM, day 6) was 7.691 Fold Change and the “Rep 1 Live Cells [Fold Change]” value (HG3 cells; HG3, 100 nM, day 10) was 6.991 Fold Change. The “Rep 2 Live Cells [Fold Change]” value (HG3 cells; HG3, 100 nM, day 10) was 12.0359 Fold Change, the “Rep 1 Live Cells [Fold Change]” value (HG3 cells; HG3, 100 nM, day 12) was 6.651 Fold Change and the “Rep 2 Live Cells [Fold Change]” value (HG3 cells; HG3, 100 nM, day 12) was 12.2598 Fold Change. For the same compound, the “Rep 1 Live Cells [Fold Change]” value (HG3 cells; HG3, 1 µM, day 0) was 1 Fold Change, the “Rep 2 Live Cells [Fold Change]” value (HG3 cells; HG3, 1 µM, day 0) was 1 Fold Change and the “Rep 1 Live Cells [Fold Change]” value (HG3 cells; HG3, 1 µM, day 3) was 4.533 Fold Change. For the same compound, the “Rep 2 Live Cells [Fold Change]” value (HG3 cells; HG3, 1 µM, day 3) was 5.967 Fold Change, the “Rep 1 Live Cells [Fold Change]” value (HG3 cells; HG3, 1 µM, day 6) was 3.083 Fold Change and the “Rep 2 Live Cells [Fold Change]” value (HG3 cells; HG3, 1 µM, day 6) was 6.961 Fold Change. The “Rep 1 Live Cells [Fold Change]” value (HG3 cells; HG3, 1 µM, day 10) was 2.4 Fold Change, the “Rep 2 Live Cells [Fold Change]” value (HG3 cells; HG3, 1 µM, day 10) was 7.031 Fold Change and the “Rep 1 Live Cells [Fold Change]” value (HG3 cells; HG3, 1 µM, day 12) was 1.832 Fold Change. For the same compound, the “Rep 2 Live Cells [Fold Change]” value (HG3 cells; HG3, 1 µM, day 12) was 4.873 Fold Change, the “anti-proliferative potency compared to PRT382” value (HG3 cells; high doses (1µM)) was “similar” and the “anti-proliferative potency compared to PRT382” value (HG3 cells; lower doses (10nM, 100nM)) was “more potent”. For the same compound, the “Rep 1 Live Cells [Fold Change]” value (Mec-1 cells; Mec-1, 1 nM, day 0) was 1 Fold Change, the “Rep 2 Live Cells [Fold Change]” value (Mec-1 cells; Mec-1, 1 nM, day 0) was 1 Fold Change and the “Rep 1 Live Cells [Fold Change]” value (Mec-1 cells; Mec-1, 1 nM, day 3) was 7.4 Fold Change. The “Rep 2 Live Cells [Fold Change]” value (Mec-1 cells; Mec-1, 1 nM, day 3) was 6.83 Fold Change, the “Rep 1 Live Cells [Fold Change]” value (Mec-1 cells; Mec-1, 1 nM, day 6) was 50.6 Fold Change and the “Rep 2 Live Cells [Fold Change]” value (Mec-1 cells; Mec-1, 1 nM, day 6) was 41.9 Fold Change. For the same compound, the “Rep 1 Live Cells [Fold Change]” value (Mec-1 cells; Mec-1, 1 nM, day 10) was 397 Fold Change, the “Rep 2 Live Cells [Fold Change]” value (Mec-1 cells; Mec-1, 1 nM, day 10) was 446 Fold Change and the “Rep 1 Live Cells [Fold Change]” value (Mec-1 cells; Mec-1, 1 nM, day 12) was 1480 Fold Change. For the same compound, the “Rep 2 Live Cells [Fold Change]” value (Mec-1 cells; Mec-1, 1 nM, day 12) was 1580 Fold Change, the “Rep 1 Live Cells [Fold Change]” value (Mec-1 cells; Mec-1, 10 nM, day 0) was 1 Fold Change and the “Rep 2 Live Cells [Fold Change]” value (Mec-1 cells; Mec-1, 10 nM, day 0) was 1 Fold Change. The “Rep 1 Live Cells [Fold Change]” value (Mec-1 cells; Mec-1, 10 nM, day 3) was 6.77 Fold Change, the “Rep 2 Live Cells [Fold Change]” value (Mec-1 cells; Mec-1, 10 nM, day 3) was 6.33 Fold Change and the “Rep 1 Live Cells [Fold Change]” value (Mec-1 cells; Mec-1, 10 nM, day 6) was 30.7 Fold Change. For the same compound, the “Rep 2 Live Cells [Fold Change]” value (Mec-1 cells; Mec-1, 10 nM, day 6) was 34 Fold Change, the “Rep 1 Live Cells [Fold Change]” value (Mec-1 cells; Mec-1, 10 nM, day 10) was 156 Fold Change and the “Rep 2 Live Cells [Fold Change]” value (Mec-1 cells; Mec-1, 10 nM, day 10) was 260 Fold Change. The “Rep 1 Live Cells [Fold Change]” value (Mec-1 cells; Mec-1, 10 nM, day 12) was 568 Fold Change, the “Rep 2 Live Cells [Fold Change]” value (Mec-1 cells; Mec-1, 10 nM, day 12) was 278 Fold Change and the “Rep 1 Live Cells [Fold Change]” value (Mec-1 cells; Mec-1, 100 nM, day 0) was 1 Fold Change. The “Rep 2 Live Cells [Fold Change]” value (Mec-1 cells; Mec-1, 100 nM, day 0) was 1 Fold Change, the “Rep 1 Live Cells [Fold Change]” value (Mec-1 cells; Mec-1, 100 nM, day 3) was 4.6 Fold Change and the “Rep 2 Live Cells [Fold Change]” value (Mec-1 cells; Mec-1, 100 nM, day 3) was 4.47 Fold Change. For the same compound, the “Rep 1 Live Cells [Fold Change]” value (Mec-1 cells; Mec-1, 100 nM, day 6) was 6.46 Fold Change, the “Rep 2 Live Cells [Fold Change]” value (Mec-1 cells; Mec-1, 100 nM, day 6) was 5.94 Fold Change and the “Rep 1 Live Cells [Fold Change]” value (Mec-1 cells; Mec-1, 100 nM, day 10) was 4.1 Fold Change. For the same compound, the “Rep 2 Live Cells [Fold Change]” value (Mec-1 cells; Mec-1, 100 nM, day 10) was 4.16 Fold Change, the “Rep 1 Live Cells [Fold Change]” value (Mec-1 cells; Mec-1, 100 nM, day 12) was 2.4 Fold Change and the “Rep 2 Live Cells [Fold Change]” value (Mec-1 cells; Mec-1, 100 nM, day 12) was 2.8 Fold Change. The “Rep 1 Live Cells [Fold Change]” value (Mec-1 cells; Mec-1, 1 µM, day 0) was 1 Fold Change, the “Rep 2 Live Cells [Fold Change]” value (Mec-1 cells; Mec-1, 1 µM, day 0) was 1 Fold Change and the “Rep 1 Live Cells [Fold Change]” value (Mec-1 cells; Mec-1, 1 µM, day 3) was 3.67 Fold Change. The “Rep 2 Live Cells [Fold Change]” value (Mec-1 cells; Mec-1, 1 µM, day 3) was 4.57 Fold Change, the “Rep 1 Live Cells [Fold Change]” value (Mec-1 cells; Mec-1, 1 µM, day 6) was 4.12 Fold Change and the “Rep 2 Live Cells [Fold Change]” value (Mec-1 cells; Mec-1, 1 µM, day 6) was 5.92 Fold Change. The “Rep 1 Live Cells [Fold Change]” value (Mec-1 cells; Mec-1, 1 µM, day 10) was 2.43 Fold Change, the “Rep 2 Live Cells [Fold Change]” value (Mec-1 cells; Mec-1, 1 µM, day 10) was 2.13 Fold Change and the “Rep 1 Live Cells [Fold Change]” value (Mec-1 cells; Mec-1, 1 µM, day 12) was 1.89 Fold Change. The “Rep 2 Live Cells [Fold Change]” value (Mec-1 cells; Mec-1, 1 µM, day 12) was 1.46 Fold Change, the “anti-proliferative potency compared to PRT382” value (Mec-1 cells; high doses (1µM)) was “similar” and the “anti-proliferative potency compared to PRT382” value (Mec-1 cells; lower doses (10nM, 100nM)) was “more potent”.
